Measured values published in a melting point compilation (Tetko et al.; mined from patent text by program, amines drawn as free bases though some values may be those of a salt).

melting point [°C]	SMILES
170 to 174	O=C(O)c1ccc(NCc2cccc(Cl)c2)cn1
113 to 120	CC1(C)CN(c2ccncc2)c2ccc(S(=O)(=O)c3ccccc3)cc2O1
212 to 213	Cc1ccc(-c2ccc3c(c2)C=C(C(=O)Nc2ccc(C(O)CN4CCCCC4)cc2)CCO3)cc1 (centres undefined)
174 to 176	COc1ccc2cc(C=C(C)C(=O)NCCN(O)C(N)=O)ccc2c1
214	COc1cc(C(=O)N2Cc3ccc(C(=O)NCCC(c4ccccc4)c4ccccc4)n3Cc3ccccc32)ccc1-c1ccccc1C
89 to 91	CNC(=S)NS(=O)(=O)c1cc(CCNC(=O)c2cnc3ccccc3c2)ccc1OCCOc1ccccc1
148 to 151	CCCNC(=O)C1(CCCc2ccc(N3C(=O)c4ccccc4C3=O)cc2)c2ccccc2-c2ccccc21
225 to 226	O=C1NCCN1c1ccc(S(=O)(=O)Nc2ccc(F)c(F)c2)cc1
156 to 157	Cc1cc(CCCOc2c(C)cc(C(=O)O)cc2C)on1
136 to 138	CCSc1cn(C)cc(-c2cccc(C(F)(F)F)c2)c1=S
134	Cc1ccc(CN(O)C(N)=O)s1
106 to 108	CC(=O)OCCc1cc2c(s1)SCCC1CC(=O)NN=C21 (centres undefined)
140 to 141	OCc1cc(-c2ccccc2)nn1Cc1ccc(Cl)cc1Cl
170 to 174	CCC(=Cc1cn(CC(=O)N(C)CCc2ccccc2)c2cccc(OCc3ccccc3)c12)C(=O)O
139 to 140	CCOC(=O)C(=O)Nc1ccc2ccccc2c1[N+](=O)[O-]
204 to 206	N#Cc1c(C(=O)NC2CC2)cnn1-c1ccc(Cl)cc1
84 to 87	CN(C)CCCNS(=O)(=O)c1cccc([N+](=O)[O-])c1
148 to 150	Cc1cccc(CC(=S)Nc2ccccc2C(=O)O)c1
47	O=C(CCl)c1ccc(-c2ccccc2Cl)cc1
85 to 86	COC(=O)CS(=O)(=O)CCCC=C1SC=CS1
143 to 144	O=COC[C@@H]1C(=O)N[C@H]1SC(c1ccccc1)(c1ccccc1)c1ccccc1 (relative stereo)
172	Cc1ccsc1NC(=O)NCC(=O)N(CC(=O)N(C)c1ccccc1)c1ccccc1
> 250	CCOC(=O)NC(=S)Nc1nnc(-c2cc(C(C)(C)C)c(O)c(C(C)(C)C)c2)s1
38 to 40	CC(C)(S)CNc1ccccc1N

melting point [°C]	SMILES
162 to 163	O=C(NCc1ccccc1)c1ccnc(-n2ccc(-c3ccccc3)cc2=O)c1
148 to 152	Cc1cc(C#N)ccc1C1(CC2c3ccccc3Oc3ccccc32)NC(=O)NC1=O (centres undefined)
91 to 92	CCOC(=O)C=Cc1cccc(OCc2nc(-c3ccccc3)oc2C)c1
83.5 to 84.5	COc1ccc(N=C(CCc2ccccc2Cl)c2ccccc2)cc1
151	Cc1cc(Cl)cc(C(=O)Nc2ccc(Cl)cn2)n1
190 to 192	CC1(C)CC(=O)Nc2ccc(-c3cccc(F)c3)cc21
160 to 162	O=C(O)c1ccc(CN(Cc2ccc(C(F)(F)P(=O)(O)O)c(Br)c2)S(=O)(=O)c2ccccc2)cc1
74 to 75	CCCCCCCC(=O)Oc1c(OC)c(OC)c(OC(=O)CCCCCCC)c2cc(Cl)ccc12
87 to 87.5	CC(=O)Oc1ccc2c(c1)OC(C)(c1ccccc1)O2 (centres undefined)
107 to 108	Cc1cc(SC(=O)N(C)C)c(C(C)(C)C)cc1C=O
127 to 128	CCCN(CCC)c1nc2cc3c(cc2s1)CC(N)C3 (centres undefined)
118 to 119	CSCCO[C@@H]1c2ccn3c(C)c(C)nc3c2N[C@H](c2ccccc2)[C@H]1O
223 to 225	COc1ccc(OCC(=O)O)c2c(=O)c3ccccc3sc12
137 to 139	Cc1cccc(-c2c(C)n(C)c(=O)n(C)c2=O)c1
66 to 68	O=C1N(Cc2cccc(OCc3ccccc3)c2)c2ccccc2C12COc1cc3c(cc12)CCO3 (centres undefined)
155 to 162	CC(=O)Nc1cccc2c1C(=O)CCCC2
118 to 120	CCOC(=O)C(C)=Cc1cn(Cc2ccc(C(=O)OC(C)(C)C)cc2OC)c2cc(C(=O)NCC3CCCC3)ccc12
86 to 88	O=C(O)CCCCCCCn1nc(-c2ccccc2)c(-c2ccccc2)n1
224 to 226	Cc1c2ccccc2c(-c2cc(Br)c(O)c(Br)c2)c2c1sc1ccccc12
196 to 197	CCn1c(=O)c2c(nc(/C=C/c3ccc(OC)cc3OC)n2C)n(CC)c1=O
200	CCc1ccc(N(Cc2ccc(N3CCOCC3)cc2)C(=O)C2CCCc3c(O)cccc32)cc1 (centres undefined)
169 to 171	O=[N+]([O-])c1ccc(-c2nc(-c3cccs3)no2)cc1
192 to 194	CN(C)CCNC(=O)c1cn(C)c(=O)c2cc3ccccc3nc12
315	Cc1cccc(C)c1CNc1cc(C(=O)N(C)C)nc2c(C)c(C)[nH]c12

melting point [°C]	SMILES
331 to 340	Cn1c2ccc(F)cc2c(=O)n2nc(C#N)cc12
101 to 102	CCOC(=O)c1ccc(C(=O)N(C)C)cc1S(=O)(=O)NC(C)(C)C
40 to 46	Cn1c(COc2ccc(CC(OCc3ccc(F)cc3)C(=O)O)cc2)nc2ccc(Sc3cc(C(C)(C)C)c(O)c(C(C)(C)C)c3)cc21 (centres undefined)
104 to 105	Fc1ccc(-n2ncc3c2-c2ccccc2C3)cc1
85 to 88	COc1cc(NC(=O)OCCCN2CCC(c3nn(C)c4cc(F)ccc34)CC2)cc(OC)c1OC
165	CC(CN1CCCC1)N1c2ccccc2Sc2ccc(C(=O)NCc3cccc(F)c3)cc21 (racemic)
154	Nc1ncc2c(n1)N(c1cccc(CCO)c1)C(=O)N(c1ccccc1Br)C2
119 to 120	CN1C2=NCCCN2C(=O)c2cc(Cl)ccc21
235 to 236	Cn1cc(C2=C(n3ccc4ccccc43)C(=O)NC2=O)c2ccccc21
207 to 208	O=c1c2cc(F)c(Cl)nc2n(-c2cccc(C(F)(F)F)c2)c(=O)n1OCc1ccccc1
90.5 to 91.5	CC(CC(F)(F)F)C(N)=O (centres undefined)
173	Cc1nn(C)c(Cl)c1S(N)(=O)=O
162 to 163	O=C(O)COc1cccc2c1CCC(Cn1cc(C(c3ccccc3)c3ccccc3)ccc1=O)C2 (centres undefined)
220 to 222	CCc1nc(O)c2c(n1)c(C)nn2C
273 to 277	Cc1csc2nc3c(c(NC(=O)CN4C(=O)NC(=O)[C@@H]4C)c12)CCCC3
209 to 211	Cc1c(C)c(N2C(=O)c3ccccc3C2=O)c(C)c2c1OC(C)(C)C2c1ccc(F)cc1 (centres undefined)
144 to 145	COc1ccc(-c2cc(=O)n(CC=Cc3ccc(Cl)cc3)nc2-c2ccc(OC)c(F)c2)cc1
254 to 256	Nc1nc2ccccc2c2c1nc(N)n2Cc1ccccc1
150 to 152	CC(=O)Nc1cc(C(=O)CCCCCl)cc2c1OCC2
231	Cc1cc(-c2cc(C(F)F)n3ncc(-c4nc(-c5ccc(N)nc5)no4)c3n2)ccc1C(F)(F)F
153 to 155	CCc1cc(SCc2ccc(-c3ccccc3C#N)cc2)n2nccc2n1
160 to 162	CN1CCC(c2c[nH]c3ccc(C(=O)c4ccc(C(F)(F)F)cc4)cc23)CC1
157 to 158	CC1(C)OC[C@H]([C@@H](CS(=O)(=O)c2ccc(Oc3ccc(Cl)cc3)cc2)N(O)C=O)O1
159 to 161	CN(C)CC1(C2(O)CCCCC2)Cc2cc3c(cc21)NCC3 (centres undefined)

melting point [°C]	SMILES
> 280	NNc1nc(Cl)nc2ccc(Cl)cc12
110 to 112	CC(=O)OCC1OC(n2cc(C(N)=S)nn2)C(OC(C)=O)C1OC(C)=O (centres undefined)
208 to 209	CCCC1=CC(C)(C)Oc2c(OCC)cc(Cc3cnc(N)nc3N)cc21
136 to 138	N#Cc1cccn1-c1cccc(C(=O)N=C(N)N)c1
164 to 165	CN1CCc2c(sc(N)c2C(=O)c2ccccc2)C1
195 to 196	CCC(=O)c1cccc2nc3n(c12)CCCN3c1ccc(Cl)cc1Cl
244	CS(=O)(=O)N(c1cccc(C(=O)Nc2nccs2)c1)C1CN(C(c2ccc(Cl)cc2)c2ccc(Cl)cc2)C1
166 to 168	CC1(C)CC(N2CCN(c3ccccc3)C2=O)c2cc(C#N)ccc2O1 (centres undefined)
211 to 212	O=C(O)c1cc(NCc2ccc([N+](=O)[O-])cc2)ccc1O
184 to 186	Cn1cc(C(=O)C(Cl)Cl)c(=O)c(-c2cccc(C(F)(F)F)c2)c1
157 to 158	CCCCn1c(Nc2cc(Cl)cc(C(F)(F)F)c2)nc(C(F)(F)F)cc1=O
154 to 156	CCc1cc(-c2ccc(OC)cc2)n(-c2ccc(S(N)(=O)=O)cc2)c1
72 to 74	CCOCc1nc2c(N)nc(C)cc2n1CC(C)C
83 to 84	COC(=O)C(CC(=O)N1CCOCC1)Oc1ccccc1 (centres undefined)
188	Oc1c(F)cc(Cn2cc[nH]c2=S)cc1F
192 to 193	CCN(CC)C(=O)Nc1ccc(S(=O)(=O)N2C(=O)C(NCCO)(c3ccccc3Cl)c3cc(Cl)ccc32)cc1 (centres undefined)
112 to 115	CCCCc1c(C(=O)C(Cl)(Cl)Cl)c2ccccc2n1C
104 to 106	ClCC1c2ccccc2Oc2ccccc21
231	COC1(c2ccc(C(C)(C)C)cc2)CC1C(=O)N[C@H](C)c1ccc(NS(C)(=O)=O)c(C)c1 (some centres undefined)
90 to 92	CCOC(=O)C1CNc2ccc(C)cc2O1 (centres undefined)
136 to 137	COc1cc(NC(=O)c2cc(C(C)C)c(C(C)C)o2)ccc1C(=O)O
166 to 168	CC1=CSC(O)C(=O)N1 (centres undefined)
110 to 111	CCOc1ccc2c(c1)C(Cl)Cc1ccc(F)cc1S2 (centres undefined)
55 to 57	COc1cnc(CSc2nc3cc(OCC(F)(F)F)ccc3[nH]2)cc1OC

SMILES	melting point [°C]
NC1=NCC(COc2ccccc2F)O1 (centres undefined)	124
O=C(c1cc(I)c[nH]1)C(Cl)(Cl)Cl	140
CC1=C(N2CC2)C(=O)c2c([nH]c(C)c2C)C1=O	251 to 253
